Laboratory results as given in patent publication US20210388018A1, “METHYL AND ETHYL NICOTINATE-RIBOSIDE-5-PHOSPHATES, PREPARATION THEREOF AND METHODS OF USE THEREOF” (Cornell University, priority 2018, published 2021).
“And” between values parts separate entries of the source, which are not always exact repeats. Equal entries are not always repeated.

What was measured:
[1] = system: HEK-293 cells; assay: NAD+ concentration in HEK-293 cells after 24 h EtNaMN (NAD+ cycling assay); assay type: cell-based, human
Method: HEK-293 cells were treated with 0 μM, 250 μM, and 500 μM of ((2R,3R,4S,5R)-3,4-dihydroxy-5-(3-(ethoxycarbonyl)pyridin-1-ium-1-yl)tetrahydrofuran-2-yl)methyl hydrogen phosphate (EtNaMN) at an initial density of 500,000 cells per well. After 24 h treatment, the NAD^+ concentration was determined using a known NAD^+ cycling assay (Jacobson, E. L. et al., Arch. Biochem. Biophys., 175: 627-634 (1976)). The cells were washed with PBS, counted by haemocytometry and pelleted. The cells were then treated with 7% perchloric acid, and then neutralized with 1 M NaOH and 500 mM potassium phosphate pH 8.5. NAD^+ contents were then measured on a plate reader using diaphorase and lactate dehydrogenase using Resazurin as a dye that is reduced to rezarufin (emission 560 nm). NAD^+ levels were quantitated using a standard curve using known NAD^+ concentrations. NAD^+ concentrations are determined to nmol NAD^+/10^6 cells.

[2] = system: tissue NAD concentrations; assay: Tissue NAD concentrations in mice 4 h after i.p. injection (cycling assay); assay type: in vivo; details: 500 mg/kg i.p. single dose, vs PBS control
Method: Sterile solutions of O-methyl-NaMN and O-ethylNaMN were prepared by combination with phosphate buffered saline for injection into mice. Mice were injected by intraperitoneal injection at a single dosage of 500 mg/kg. All mice were weighed to achieve correct injection volume. Each group was composed of 5 mice, and mice were sacrificed at 4 hours. Control mice received only PBS. At sacrifice, mice were first injected with an anesthetic dose of ketamine to obtain blood by cardiac puncture. Then mice were euthanized and tissues harvested and frozen immediately in liquid nitrogen.
To determine tissue NAD concentrations, tissues were weighed and pulverized in liquid nitrogen. Perchloric acid (7%) was then added to pulverized tissue samples and neutralized by NaOH and 250 mM potassium phosphate buffer pH 8.5. Samples were pelleted to remove insoluble material. NAD concentrations were determined by cycling assay as published (Li et al., Methods in molecular biology 1241, 39-48, doi:10.1007/978-1-4939-1875-1_4 (2015)). […] This property is desirable, as effects expected from NAD enhancement in muscle include mitochondrial biogenesis and improved insulin sensitivity, as noted for other agents that increase NAD concentrations in this tissue^3. In fact, the extent of NAD raising exceeds those observed for other agents.

[3] = system: C2C12 cells; assay: Cellular NAD at 14 h in C2C12 cells (cycling assay); assay type: cell-based, murine; set-up: cellular NAD: unit not given here
Method: (§1) Neu2a, HEK293, HEPG2 and C2C12 cells were cultured and the dosage of the corresponding compound was increased by amounts of 0, 100 μM, 400 μM and 800 μM for each cell line. Each experiment was performed in triplicate. Cells were incubated for a period of 14 hr. At termination of incubation, media was removed and cells were treated with trypsin to gently detach and cells counted. Cell pellets were obtained by centrifugation, and then […] of 7% perchloric acid was added to extract NAD. Extracts obtained were then neutralized by addition of NaOH and 250 mM potassium phosphate buffer pH 8.5. NAD was determined by a cycling assay that measures NAD concentrations by comparison to a standard curve (Li et al., 2015).

[4] = system: HEK293 cells; assay: Cellular NAD at 14 h in HEK293 cells (cycling assay); assay type: cell-based, human; set-up: unit not given here
Method: as §1

[5] = system: HEPG2 cells; assay: Cellular NAD at 14 h in HEPG2 cells (cycling assay); assay type: cell-based; set-up: unit not given here
Method: as §1

[6] = system: Neu2a cells; assay: Cellular NAD at 14 h in Neu2a cells (cycling assay); assay type: cell-based; set-up: cellular NAD: unit not given here
Method: as §1

[7] = system: HEK293 cells; assay: Intracellular NAD+ in HEK293 cells after NaMN or NR (diaphorase-based assay); assay type: cell-based, human; details: HEK293, 1 mM, 8 h incubation, FIG. 1
Method: (§2) The ability of nicotinic acid mononucleotide, NaMN, to serve as an NAD^+ enhancing agent in mammalian cell lines, Neuro2a and HEK293 cells was examined after an 8 h incubation. NaMN was added to cell growth media at a concentration of 1 mM. All cell treatments were done in duplicate. Nicotinamide riboside (NR) at 1 mM concentration was performed as a positive control. Untreated cells served as negative controls. Cells were treated for the allotted time then harvested by trysin detachment and pelleting. Cells were counted by haemocytometer and then lysed by treatment with 100 μL perchloric acid (7%). Lysates were then neutralized by treatment with NaOH and K2PO4 solutions. NAD^+ concentrations were determined by a diaphorase-based assay. NAD^+ standards were also run to establish a standard curve. The results are graphically depicted in FIG. 1.

[8] = system: Neuro2a cells; assay: Intracellular NAD+ in Neuro2a cells after NaMN or NR (diaphorase-based assay); assay type: cell-based; details: 1 mM, 8 h incubation, FIG. 1
Method: as §2

| Compound | increase in tissue NAD, blood [2] | increase in tissue NAD, kidney [2] | increase in tissue NAD, skeletal muscle [2] | cellular NAD ([3]; C2C12, 100 μM) | cellular NAD ([3]; C2C12, 400 μM) | cellular NAD ([3]; C2C12, 800 μM) | cellular NAD ([4]; HEK293, 100 μM) | cellular NAD ([4]; HEK293, 400 μM) | cellular NAD ([4]; HEK293, 800 μM) | cellular NAD ([5]; HEPG2, 100 μM) | cellular NAD ([5]; HEPG2, 400 μM) | cellular NAD ([5]; HEPG2, 800 μM) | cellular NAD ([6]; 100 μM) | cellular NAD ([6]; 400 μM) | cellular NAD ([6]; 800 μM) | intracellular NAD+ content vs untreated cells [7] | intracellular NAD+ content vs untreated cells [8] | also measured |
| --- | --- | --- | --- | --- | --- | --- | --- | --- | --- | --- | --- | --- | --- | --- | --- | --- | --- | --- |
| CCOC(=O)c1ccc[n+]([C@@H]2O[C@H](COP(=O)([O-])O)[C@H](O)[C@@H]2O)c1 [O-EtNaMN, ((2R,3R,4S,5R)-3,4-dihydroxy-5-(3-(ethoxycarbonyl)pyridin-1-ium-1-yl)tetrahydrofuran-2-yl)methyl hydrogen phosphate] | increases in blood were not apparent | approximately twofold | no apparent effect | 1886 ± 183 | 1766 ± 69.5 | 2320 ± 208 | 1128 ± 95 | 1144 ± 132 | 1133 ± 168 | 2222 ± 99 | 2331 ± 429 | 2287 ± 181 | 1624 ± 24 | 1727 ± 40.8 | 1744 ± 151 |  |  | NAD+ Concentration ([1]; HEK293, 250 μM EtNaMN): 220 μM ± 42 μM; NAD+ Concentration relative to control ([1]; HEK293, 250 μM EtNaMN): 1.29 and 1.29 ± 0.24; NAD+ Concentration ([1]; HEK293, 500 μM EtNaMN): 270 μM ± 35 μM; NAD+ Concentration relative to control ([1]; HEK293, 500 μM EtNaMN): 1.59 and 1.59 ± 0.21; increase in tissue NAD, liver ([2]; liver): greater than twofold; increase in NAD concentrations vs control ([3]; 800 μM, cell line not given, figures fit C2C12): 68%; increase in cellular NAD vs control ([6]; 100 μM): ~40%; increase in cellular NAD concentrations vs control ([6]; 800 μM): 50% |
| COC(=O)c1ccc[n+]([C@@H]2O[C@H](COP(=O)([O-])O)[C@H](O)[C@@H]2O)c1 [O-MeNaMN, ((2R,3R,4S,5R)-3,4-dihydroxy-5-(3-(methoxycarbonyl)pyridin-1-ium-1-yl)tetrahydrofuran-2-yl)methyl hydrogen phosphate] | Neither ethyl nor methyl derivatives appeared active as NAD enhancers in blood | ~2.5 fold | unique capability to increase skeletal muscle NAD concentrations | 2864 ± 565 | 2596 ± 572 | 2574 ± 355 | 1178 ± 65 | 947 ± 101 | 1440 ± 204 | 2227 ± 280 | 1663 ± 61 | 2383 ± 155 | 1204 ± 158 | 1523 ± 145 | 2125 ± 187 |  |  | increase in cellular NAD concentrations vs control ([3]; all concentrations tested (100, 400, 800 μM), cell line not given, figures fit C2C12): at least 70%; increase in cellular NAD concentrations vs control (fold, in words) ([6]; 800 μM): more than two fold |
| NC(=O)c1ccc[n+]([C@@H]2O[C@H](CO)[C@@H](O)[C@H]2O)c1 [NR, Nicotinamide riboside] |  |  |  |  |  |  |  |  |  |  |  |  |  |  |  | increased NAD^+ contents in cells | increased NAD^+ contents in cells |  |
| O=C(O)c1ccc[n+]([C@@H]2O[C@H](COP(=O)(O)O)[C@@H](O)[C@H]2O)c1 [NaMN, nicotinic acid mononucleotide] |  |  |  |  |  |  |  |  |  |  |  |  |  |  |  | No intracellular increase in NAD^+ | No intracellular increase in NAD^+ |  |
